# Data as given in US6599541B1, “Composition for treatment of drug resistant bacterial infections and a method of treating drug resistant bacterial infections” (priority 1999, dated 2003).
# Read-outs that look alike come from different tables or passages of the source.
# Columns and labels:
# Staphylococcus aureus [1] = assay: Agar Dilution Method of Sensitivity testing, NE alone and NE + antibiotic; assay type: cell-based; conditions: for Growth Patterns after addition of NE: no. of cultures +++ (growth) / Growth Patterns after addition of NE: no. of cultures −−− (inhibition of growth): resistant S. aureus cultures, 48 hours
# Method: Two kinds of investigations were carried-out using these bacterial isolates—using an Agar Dilution Method of Sensitivity testing.
# i) To ascertain whether, NE can work as an antibacterial substance on its own. For this purpose, a stock-solution of NE was prepared and was sterilized as described in the preliminary experiments.
# ii) This stock-solution was dispensed into the culture medium (Mueller Hinton Agar) so as to provide while; the medium was in liquid form. Four different concentrations of NE, viz.
# iii) This medium was poured into petri dishes and allowed to solidify. Resistant cultures were inoculated on to these plates and after incubation for 48 hours, the growth patterns were assessed.
# iv) The experiments were run in triplicate, for each concentration—as per standard practices of microbiological testing procedures.
# i) The culture medium (Mueller Hinton Agar) was melted and distributed into a number of test tubes.
# ii) The stock solution of NE was dispensed into these test tubes in four different concentrations viz.
# iii) In the same medium, one of the antibiotics under investigation was also added so as to provide a variable concentration (at break-even point concentration) as described below:
# iv) The culture medium containing NE extract+the antibiotic were poured into petri dishes and allowed to solidify.
# v) The resistant bacterial strains were inoculated onto these plates, incubated for 48 hours and the growth patterns were studied on each plate.
# These cultures were obtained various clinical samples, such as sputum, non-healing infected wounds, throat swabs etc.
# [2] = system: β-haemolytic streptococci; assay: Broth tube test of NE with antibiotic at break point, percentage of killing; assay type: cell-based; conditions: for bacterial growth in control tubes: NE and antibiotic added individually
# Method: Since all the study isolates are resistant to the concerned antibiotics, each antibiotic is taken at its breakpoint concentration, (the highest serum concentration of that particular antibiotic reached after the maximum therapeutic dose in-vivo). The break points for various antibiotics are as follows:
# Preparation of Neem Extract: Stock solution of neem extract (1 mg/ml) was prepared, filtered and autoclaved. It was used in 4 concentrations—1000 μg/ml; 500 μg/ml; 250 μg/ml; 125 μg/ml.
# A set of four tubes with variable concentrations of the extract is prepared and to each of these tubes, the break point concentration of antibiotics is added. Now, these sets are inoculated with the study isolate in the same manner as per the broth dilution procedure. A set of six controls is inoculated with each isolate—in parallel with the main experiment.
# 2. Only antibiotic solution
# 3. Medium and antibiotic solution with inoculum
# 5. Only Neem extract at 250 μg/ml
# 6. Medium with Neem Extract and inoculum
# Reading the test All the tests and control tubes are observed for visible turbidity of growth first. Since all the study isolates were earlier confirmed to be resistant to the antibiotics, the bacterial growth is expected at the breakpoint concentration of the antibiotic. Any reduction in the turbidity as compared to the control tube no. 3 is noted as a possible additive or synergistic effect of the neem extract with the antibiotic. In absence of such effect, the tubes may show growth matching with the control no. 4.
# In case of a positive result, further sub-culturing was taken up, on solid media for colony counts with a calibrated loop. The colony counts could be noted by a semi quantitative method as 101 to 10^5 CFU/ml (Colony forming units). This is finally expressed as the percentage of killing as compared to the colony count obtained with control no. 4. Usually control tubes no. 3, 4 and 6 had similar colony counts.
# [3] = system: β-haemolytic streptococci; assay: Broth Macro Dilution Test, MIC and MBC; assay type: cell-based; conditions: antibiotic alone, read-out: minimum inhibitory concentration (MIC)
# Method: (§1) This was done by estimation of the Minimum Inhibitory Concentration (MIC) and Minimum Bactericidal Concentration (MBC) on the selected isolates by a Broth Macro Dilution Test.
# (§2) Cation Supplemented Mueller Hinton Broth was used as medium for all organisms excepting for β haemolytic streptococci for which, Todd Hewit's Broth was used as medium.
# (§3) The following concentrations of antibiotics were tested to determine MIC and MBC.
# (§4) A minimum inhibitory concentration is the lowest level of antibiotic needed to cause an inhibition to bacterial growth in culture medium whereas, the minimum bactericidal concentration is the lowest concentration of antibiotic to achieve a 100% killing of bacteria. Thus, these two values are the practical indices of intensity of bacterial resistance to a given antibiotic. On the other hand, a break-even point of any antibiotic indicates the attainable blood levels after an administration of full dose, in human/animal body. Thus, this point indicates the practical dosage of administering any given antibiotic effectively and beyond this point, even if an antibiotic is found to act effectively in experimental situation—such dose cannot be administered in a clinical situation.
# Staphylococcus aureus [4] = assay: Broth Macro Dilution Test, MIC and MBC; assay type: cell-based; conditions: Example 12: strain from non-healing burn wound swab culture, antibiotic alone
# Method: as §1, §2, §3, §4
# [5] = highest serum concentration reached after the maximum therapeutic dose in-vivo; cited from earlier work
# [6] = antibiotic at break-even point + NE 125 μg/mL
# [7] = antibiotic at break-even point + NE 250 μg/mL
# [8] = antibiotic at break-even point + NE 500 μg/mL
# [9] = antibiotic at break-even point + NE 1000 μg/mL
smiles,measurement,setting,value
CC[C@H]1OC(=O)[C@H](C)[C@@H](O[C@H]2C[C@@](C)(OC)[C@@H](O)[C@H](C)O2)[C@H](C)[C@@H](O[C@@H]2O[C@H](C)C[C@H](N(C)C)[C@H]2O)[C@](C)(O)C[C@@H](C)C(=O)[C@H](C)[C@@H](O)[C@]1(C)O [Erythromycin],clinical strains sensitized by NE to the antibiotic,"Staphylococcus aureus [1]; 102 resistant S. aureus cultures, NE + antibiotic",50%
same,Growth Patterns after addition of NE: no. of cultures +++ (growth),Staphylococcus aureus [1]; [6],72
same,Growth Patterns after addition of NE: no. of cultures −−− (inhibition of growth),Staphylococcus aureus [1]; [6],30
same,Growth Patterns after addition of NE: no. of cultures +++ (growth),Staphylococcus aureus [1]; [7],66
same,Growth Patterns after addition of NE: no. of cultures −−− (inhibition of growth),Staphylococcus aureus [1]; [7],36
same,Growth Patterns after addition of NE: no. of cultures +++ (growth),Staphylococcus aureus [1]; [8],61
same,Growth Patterns after addition of NE: no. of cultures −−− (inhibition of growth),Staphylococcus aureus [1]; [8],41
same,Growth Patterns after addition of NE: no. of cultures +++ (growth),Staphylococcus aureus [1]; [9],51
same,Growth Patterns after addition of NE: no. of cultures −−− (inhibition of growth),Staphylococcus aureus [1]; [9],51
same,bacterial growth in control tubes,[2]; Example 8 isolate,unhindered
same,bactericidal effect,"[2]; Example 8 isolate, antibiotic 4 μg/ml combined with NE 1000 μg/ml",99%
same,bactericidal effect,"[2]; Example 8 isolate, antibiotic 4 μg/ml combined with NE 125, 250 and 500 μg/ml",100%
same,bacterial growth in control tubes,[2]; Example 9 isolate,unhindered
same,bactericidal effect,"[2]; Example 9 isolate, antibiotic at break even point combined with NE 250 μg/ml and 125 μg/ml",99%
same,killing,"[2]; Example 9 isolate, antibiotic at break-even point combined with NE 500 μg/ml or 1000 μg/ml",50%
same,MIC,[3]; Example 8: isolate from throat swab culture,64 µg/mL
same,MIC,[3]; Example 9: isolate from sputum culture,32 µg/mL
same,MBC,Staphylococcus aureus [4],> 256 µg/mL
same,break point,[5],4 µg/mL
